Measured values reported in patent publication US11254668B2, “Pyrazolo[1,5-A]pyrazin-4-yl and related derivatives” (Pfizer Inc., priority 2017, dated 2022).

Experiments:
Format in all cases: biochemical
TYK2 = TYK2 (Homo sapiens (Human), UniProt P29597); experiment: JAK Caliper Enzyme Assay at 1 mM ATP, TYK2
How it was run: (§1)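 Inhibition is measured as reduced phosphorylation of a synthetic peptide by the recombinant human kinase domain at 1 mM ATP. Conditions give 20–30% conversion at room temperature before EDTA quench, and on-chip separation of labelled substrate and product yields percent conversion for dose–response plotting.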

JAK1 = JAK1 (Homo sapiens (Human), UniProt P23458); experiment: JAK Caliper Enzyme Assay at 1 mM ATP, JAK1
JAK1, sequence (P23458 875-1153): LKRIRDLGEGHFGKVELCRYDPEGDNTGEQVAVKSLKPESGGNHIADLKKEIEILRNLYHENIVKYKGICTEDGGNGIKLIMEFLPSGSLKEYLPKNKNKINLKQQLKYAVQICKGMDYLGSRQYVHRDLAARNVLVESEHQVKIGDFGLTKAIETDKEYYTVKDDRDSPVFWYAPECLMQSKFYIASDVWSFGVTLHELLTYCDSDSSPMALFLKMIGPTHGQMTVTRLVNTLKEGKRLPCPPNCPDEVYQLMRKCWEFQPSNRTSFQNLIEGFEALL
How it was run: (§2)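 IC50 (nM) derived from percent conversion of fluorescently labelled peptide, measured by Caliper LabChip mobility-shift separation after EDTA stop. Each JAK family kinase domain (human, recombinant) run at 1 mM ATP and room temperature, conditions set to 20-30% product; DMSO wells define uninhibited baseline.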

JAK2 = JAK2 (Homo sapiens (Human), UniProt O60674); experiment: JAK Caliper Enzyme Assay at 1 mM ATP, JAK2
JAK2, sequence (O60674 849-1124): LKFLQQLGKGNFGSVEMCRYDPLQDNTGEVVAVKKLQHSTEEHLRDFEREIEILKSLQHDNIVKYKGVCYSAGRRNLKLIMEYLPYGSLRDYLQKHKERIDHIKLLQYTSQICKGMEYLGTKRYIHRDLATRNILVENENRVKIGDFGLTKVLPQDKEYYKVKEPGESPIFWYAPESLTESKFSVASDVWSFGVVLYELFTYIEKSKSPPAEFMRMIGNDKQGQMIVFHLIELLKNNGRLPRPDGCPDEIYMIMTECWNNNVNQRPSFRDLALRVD
How it was run: as §1

JAK3 = JAK3 (Homo sapiens (Human), UniProt P52333); experiment: JAK Caliper Enzyme Assay at 1 mM ATP, JAK3
JAK3, sequence (P52333 822-1111): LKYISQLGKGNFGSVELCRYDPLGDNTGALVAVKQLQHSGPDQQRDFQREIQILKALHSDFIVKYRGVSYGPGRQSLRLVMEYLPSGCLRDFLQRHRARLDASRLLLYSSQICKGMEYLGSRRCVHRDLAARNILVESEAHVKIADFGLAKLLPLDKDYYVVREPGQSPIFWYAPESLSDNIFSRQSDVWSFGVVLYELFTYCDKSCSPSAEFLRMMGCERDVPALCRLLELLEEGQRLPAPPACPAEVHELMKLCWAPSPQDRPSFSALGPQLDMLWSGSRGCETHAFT
How it was run: as §2

TYK2, sequence (P29597 897-1176): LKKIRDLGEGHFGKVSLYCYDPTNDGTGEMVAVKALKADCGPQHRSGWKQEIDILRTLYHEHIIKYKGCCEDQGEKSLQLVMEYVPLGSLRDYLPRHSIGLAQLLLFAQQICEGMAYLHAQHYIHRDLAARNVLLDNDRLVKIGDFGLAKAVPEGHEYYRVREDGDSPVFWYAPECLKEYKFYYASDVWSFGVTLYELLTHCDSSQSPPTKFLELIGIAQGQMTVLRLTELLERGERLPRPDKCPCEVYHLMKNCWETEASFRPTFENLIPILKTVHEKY

N#CCC1(n2ncc(-c3cc(-c4nc(CO)cs4)cc4ncccc34)n2)CC(C#N)C1 (stereo not drawn) [Example 340, cis-3-(cyanomethyl)-3-(4-{7-[4-(hydroxymethyl)-1,3-thiazol-2-yl]quinolin-5-yl}-2H-1,2,3-triazol-2-yl)cyclobutanecarbonitrile]
IC50 (TYK2): 13 nM | IC50 (JAK1): 432 nM | IC50 (JAK2): 94 nM | IC50 (JAK3): 8910 nM

N#CC[C@]1(n2ncc(-c3cc(-c4nc(CO)cs4)cc4ncccc34)n2)C[C@H](C#N)C1 [Example 341, trans-3-(cyanomethyl)-3-(4-{7-[4-(hydroxymethyl)-1,3-thiazol-2-yl]quinolin-5-yl}-2H-1,2,3-triazol-2-yl)cyclobutanecarbonitrile]
IC50 (TYK2): 57 nM | IC50 (JAK1): 3240 nM | IC50 (JAK2): 649 nM | IC50 (JAK3): > 10000 nM

N#CC[C@]1(n2ncc(-c3cc(-c4cnc(CO)s4)cc4ncccc34)n2)C[C@H](C#N)C1 [Example 342, trans-3-(cyanomethyl)-3-(4-{7-[2-(hydroxymethyl)-1,3-thiazol-5-yl]quinolin-5-yl}-2H-1,2,3-triazol-2-yl)cyclobutanecarbonitrile]
IC50 (TYK2): 135 nM | IC50 (JAK1): 2580 nM | IC50 (JAK2): 990 nM | IC50 (JAK3): > 10000 nM

N#CC[C@]1(n2ncc(-c3cc(-c4ncc(CO)s4)cc4ncccc34)n2)C[C@H](C#N)C1 [Example 343, trans-3-(cyanomethyl)-3-(4-{7-[5-(hydroxymethyl)-1,3-thiazol-2-yl]quinolin-5-yl}-2H-1,2,3-triazol-2-yl)cyclobutanecarbonitrile]
IC50 (TYK2): 65 nM | IC50 (JAK1): 3340 nM | IC50 (JAK2): 660 nM | IC50 (JAK3): > 10000 nM

N#CCC1(n2ncc(-c3cc(-c4scnc4CO)cc4ncccc34)n2)CC(C#N)C1 (stereo not drawn) [Example 344, trans-3-(cyanomethyl)-3-(4-{7-[4-(hydroxymethyl)-1,3-thiazol-5-yl]quinolin-5-yl}-2H-1,2,3-triazol-2-yl)cyclobutanecarbonitrile]
IC50 (TYK2): 776 nM | IC50 (JAK1): > 10000 nM | IC50 (JAK2): > 10000 nM | IC50 (JAK3): > 10000 nM

N#CC[C@]1(n2ncc(-c3cc(-c4cc(CO)ns4)cc4ncccc34)n2)C[C@H](C#N)C1 [Example 345, trans-3-(cyanomethyl)-3-(4-{7-[3-(hydroxymethyl)-1,2-thiazol-5-yl]quinolin-5-yl}-2H-1,2,3-triazol-2-yl)cyclobutanecarbonitrile]
IC50 (TYK2): 249 nM | IC50 (JAK1): 3810 nM | IC50 (JAK2): 1860 nM | IC50 (JAK3): > 10000 nM

N#CCC1(n2ncc(-c3cc(-c4ccccn4)cc4ncccc34)n2)CC(C#N)C1 (stereo not drawn) [Example 346, cis-3-(cyanomethyl)-3-{4-[7-(pyridin-2-yl)quinolin-5-yl]-2H-1,2,3-triazol-2-yl}cyclobutanecarbonitrile]
IC50 (TYK2): 23 nM | IC50 (JAK1): 1080 nM | IC50 (JAK2): 123 nM | IC50 (JAK3): > 10000 nM

N#CC[C@]1(n2ncc(-c3cc(-c4ccc(F)cn4)cc4ncccc34)n2)C[C@@H](C#N)C1 [Example 347, cis-3-(cyanomethyl)-3-{4-[7-(5-fluoropyridin-2-yl)quinolin-5-yl]-2H-1,2,3-triazol-2-yl}cyclobutanecarbonitrile]
IC50 (TYK2): 26 nM | IC50 (JAK1): 1200 nM | IC50 (JAK2): 114 nM | IC50 (JAK3): > 10000 nM

N#CCC1(n2ncc(-c3cc(-c4ccc(F)cn4)cc4ncccc34)n2)CC(C#N)C1 (stereo not drawn) [Example 348, trans-3-(cyanomethyl)-3-{4-[7-(5-fluoropyridin-2-yl)quinolin-5-yl]-2H-1,2,3-triazol-2-yl}cyclobutanecarbonitrile]
IC50 (TYK2): 143 nM | IC50 (JAK1): > 10000 nM | IC50 (JAK2): 876 nM | IC50 (JAK3): > 10000 nM

N#CCC1(n2ncc(-c3cc(-c4ccc(C(N)=O)cn4)cc4ncccc34)n2)CC(C#N)C1 (stereo not drawn) [Example 351, 6-(5-{2-[trans-3-cyano-1-(cyanomethyl)cyclobutyl]-2H-1,2,3-triazol-4-yl}quinolin-7-yl)pyridine-3-carboxamide]
IC50 (TYK2): 131 nM | IC50 (JAK1): > 10000 nM | IC50 (JAK2): 688 nM | IC50 (JAK3): > 10000 nM

N#CCC1(n2ncc(-c3cc(-c4ccc(C(N)=O)cn4)cc4ncccc34)n2)CC(C#N)C1 (stereo not drawn) [Example 352, 6-(5-{2-[cis-3-cyano-1-(cyanomethyl)cyclobutyl]-2H-1,2,3-triazol-4-yl}quinolin-7-yl)pyridine-3-carboxamide]
IC50 (TYK2): 27 nM | IC50 (JAK1): 825 nM | IC50 (JAK2): 106 nM | IC50 (JAK3): > 10000 nM

N#CCC1(n2ncc(-c3cc(-c4cc(C(N)=O)ccn4)cc4ncccc34)n2)CC(C#N)C1 (stereo not drawn) [Example 353, 2-(5-{2-[cis-3-cyano-1-(cyanomethyl)cyclobutyl]-2H-1,2,3-triazol-4-yl}quinolin-7-yl)pyridine-4-carboxamide]
IC50 (TYK2): 1570 nM | IC50 (JAK1): 9630 nM | IC50 (JAK2): > 10000 nM | IC50 (JAK3): > 10000 nM

N#CC[C@]1(n2ncc(-c3cc(-c4cc(C(N)=O)ccn4)cc4ncccc34)n2)C[C@@H](C#N)C1 [Example 354, 2-(5-{2-[trans-3-cyano-1-(cyanomethyl)cyclobutyl]-2H-1,2,3-triazol-4-yl}quinolin-7-yl)pyridine-4-carboxamide]
IC50 (TYK2): 7240 nM | IC50 (JAK1): > 10000 nM | IC50 (JAK2): > 10000 nM | IC50 (JAK3): > 10000 nM

Cc1ccc(-c2cc(-c3cnn(C4(CC#N)CN(S(C)(=O)=O)C4)n3)c3cccnc3c2)cn1 [Example 355, [3-{4-[7-(6-methylpyridin-3-yl)quinolin-5-yl]-2H-1,2,3-triazol-2-yl}-1-(methylsulfonyl)azetidin-3-yl]acetonitrile]
IC50 (TYK2): 137 nM | IC50 (JAK1): > 10000 nM | IC50 (JAK2): 1580 nM | IC50 (JAK3): > 10000 nM

Cc1cc(-c2cc(-c3cnn(C4(CC#N)CN(S(C)(=O)=O)C4)n3)c3cccnc3c2)ccn1 [Example 356, [3-{4-[7-(2-methylpyridin-4-yl)quinolin-5-yl]-2H-1,2,3-triazol-2-yl}-1-(methylsulfonyl)azetidin-3-yl]acetonitrile]
IC50 (TYK2): 130 nM | IC50 (JAK1): > 10000 nM | IC50 (JAK2): 973 nM | IC50 (JAK3): > 10000 nM

N#CC[C@]1(n2ncc(-c3cc(-c4cccc(N)n4)cc4ncccc34)n2)C[C@H](C#N)C1 [Example 357, trans-3-{4-[7-(6-aminopyridin-2-yl)quinolin-5-yl]-2H-1,2,3-triazol-2-yl}-3-(cyanomethyl)cyclobutanecarbonitrile]
IC50 (TYK2): 99 nM | IC50 (JAK1): 2580 nM | IC50 (JAK2): 670 nM | IC50 (JAK3): > 10000 nM

N#CC[C@]1(n2ncc(-c3cc(-c4cccc(N)n4)cc4ncccc34)n2)C[C@@H](C#N)C1 [Example 358, cis-3-{4-[7-(6-aminopyridin-2-yl)quinolin-5-yl]-2H-1,2,3-triazol-2-yl}-3-(cyanomethyl)cyclobutanecarbonitrile]
IC50 (TYK2): 20 nM | IC50 (JAK1): 404 nM | IC50 (JAK2): 92 nM | IC50 (JAK3): 3760 nM

N#CC[C@]1(n2ncc(-c3cc(-c4ccc(N)cn4)cc4ncccc34)n2)C[C@@H](C#N)C1 [Example 359, cis-3-{4-[7-(5-aminopyridin-2-yl)quinolin-5-yl]-2H-1,2,3-triazol-2-yl}-3-(cyanomethyl)cyclobutanecarbonitrile]
IC50 (TYK2): 13 nM | IC50 (JAK1): 321 nM | IC50 (JAK2): 69 nM | IC50 (JAK3): 6700 nM

N#CC[C@]1(n2ncc(-c3cc(-c4ccc(N)cn4)cc4ncccc34)n2)C[C@H](C#N)C1 [Example 360, trans-3-{4-[7-(5-aminopyridin-2-yl)quinolin-5-yl]-2H-1,2,3-triazol-2-yl}-3-(cyanomethyl)cyclobutanecarbonitrile]
IC50 (TYK2): 40 nM | IC50 (JAK1): 1720 nM | IC50 (JAK2): 354 nM | IC50 (JAK3): > 10000 nM

CS(=O)(=O)N1CC(CC#N)(n2ncc(-c3cc(-c4cccnc4N)cc4ncccc34)n2)C1 [Example 361, [3-{4-[7-(2-aminopyridin-3-yl)quinolin-5-yl]-2H-1,2,3-triazol-2-yl}-1-(methylsulfonyl)azetidin-3-yl]acetonitrile]
IC50 (TYK2): 3630 nM | IC50 (JAK1): > 10000 nM | IC50 (JAK2): > 10000 nM | IC50 (JAK3): > 10000 nM

N#CC[C@]1(n2ncc(-c3cc(-c4cccnc4N)cc4ncccc34)n2)C[C@@H](C#N)C1 [Example 362, cis-3-{4-[7-(2-aminopyridin-3-yl)quinolin-5-yl]-2H-1,2,3-triazol-2-yl}-3-(cyanomethyl)cyclobutanecarbonitrile]
IC50 (TYK2): 1960 nM | IC50 (JAK1): > 10000 nM | IC50 (JAK2): > 10000 nM | IC50 (JAK3): > 10000 nM

N#CC[C@]1(n2ncc(-c3cc(-c4cccnc4N)cc4ncccc34)n2)C[C@H](C#N)C1 [Example 363, trans-3-{4-[7-(2-aminopyridin-3-yl)quinolin-5-yl]-2H-1,2,3-triazol-2-yl}-3-(cyanomethyl)cyclobutanecarbonitrile]
IC50 (TYK2): 6840 nM | IC50 (JAK1): > 10000 nM | IC50 (JAK2): > 10000 nM | IC50 (JAK3): > 10000 nM

CS(=O)(=O)N1CC(CC#N)(n2ncc(-c3cc(-c4ccc(N)nc4)cc4ncccc34)n2)C1 [Example 364, [3-{4-[7-(6-aminopyridin-3-yl)quinolin-5-yl]-2H-1,2,3-triazol-2-yl}-1-(methylsulfonyl)azetidin-3-yl]acetonitrile]
IC50 (TYK2): 67 nM | IC50 (JAK1): 2960 nM | IC50 (JAK2): 834 nM | IC50 (JAK3): > 10000 nM

N#CC[C@]1(n2ncc(-c3cc(-c4ccc(N)nc4)cc4ncccc34)n2)C[C@H](C#N)C1 [Example 365, trans-3-{4-[7-(6-aminopyridin-3-yl)quinolin-5-yl]-2H-1,2,3-triazol-2-yl}-3-(cyanomethyl)cyclobutanecarbonitrile]
IC50 (TYK2): 103 nM | IC50 (JAK1): 2660 nM | IC50 (JAK2): 938 nM | IC50 (JAK3): > 10000 nM

N#CC[C@]1(n2ncc(-c3cc(-c4ccc(N)nc4)cc4ncccc34)n2)C[C@@H](C#N)C1 [Example 366, cis-3-{4-[7-(6-aminopyridin-3-yl)quinolin-5-yl]-2H-1,2,3-triazol-2-yl}-3-(cyanomethyl)cyclobutanecarbonitrile]
IC50 (TYK2): 26 nM | IC50 (JAK1): 520 nM | IC50 (JAK2): 167 nM | IC50 (JAK3): 8160 nM
